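Each compound was tested at five concentrations against cells in 96-well plates for 48 hours. TGI denotes the concentration required for complete inhibition of growth.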
Assays:
Test in all cases: NCI-60 cell line screen, 48 h
786-0 renal = system: 786-0 renal
A498 renal = system: A498 renal
A549 NSCLC = system: A549 NSCLC
ACHN renal = system: ACHN renal
BT-549 breast = system: BT-549 breast
CAKI-1 renal = system: CAKI-1 renal
COLO 205 colon = system: COLO 205 colon
DU-145 prostate = system: DU-145 prostate
EKVX NSCLC = system: EKVX NSCLC
HCC-2998 colon = system: HCC-2998 colon
HCT-116 colon = system: HCT-116 colon
HCT-15 colon = system: HCT-15 colon
HOP-62 NSCLC = system: HOP-62 NSCLC
HOP-92 NSCLC = system: HOP-92 NSCLC
HS 578T breast = system: HS 578T breast
HT29 colon = system: HT29 colon
IGROV1 ovarian = system: IGROV1 ovarian
K-562 leukemia = system: K-562 leukemia
KM12 colon = system: KM12 colon
LOX IMVI melanoma = system: LOX IMVI melanoma
M14 melanoma = system: M14 melanoma
MALME-3M melanoma = system: MALME-3M melanoma
MCF7 breast = system: MCF7 breast
MDA-MB-231 breast = system: MDA-MB-231 breast
MDA-MB-435 = system: MDA-MB-435
MDA-N = system: MDA-N
NCI-H226 lung = system: NCI-H226 lung
NCI-H23 lung = system: NCI-H23 lung
NCI-H460 lung = system: NCI-H460 lung
NCI/ADR-RES ovarian = system: NCI/ADR-RES ovarian
OVCAR-3 ovarian = system: OVCAR-3 ovarian
OVCAR-4 ovarian = system: OVCAR-4 ovarian
OVCAR-5 ovarian = system: OVCAR-5 ovarian
OVCAR-8 ovarian = system: OVCAR-8 ovarian
PC-3 prostate = system: PC-3 prostate
RPMI-8226 leukemia = system: RPMI-8226 leukemia
SF-268 CNS = system: SF-268 CNS
SF-295 CNS = system: SF-295 CNS
SK-MEL-2 melanoma = system: SK-MEL-2 melanoma
SK-OV-3 ovarian = system: SK-OV-3 ovarian
SN12C renal = system: SN12C renal
SNB-19 CNS = system: SNB-19 CNS
SNB-75 CNS = system: SNB-75 CNS
T-47D breast = system: T-47D breast
TK-10 renal = system: TK-10 renal
U251 CNS = system: U251 CNS
UO-31 renal = system: UO-31 renal
CCRF-CEM leukemia = system: CCRF-CEM leukemia
MOLT-4 leukemia = system: MOLT-4 leukemia
NCI-H522 lung = system: NCI-H522 lung
RXF 393 renal = system: RXF 393 renal
SF-539 CNS = system: SF-539 CNS
SK-MEL-28 melanoma = system: SK-MEL-28 melanoma
SK-MEL-5 melanoma = system: SK-MEL-5 melanoma
SW-620 colon = system: SW-620 colon
UACC-257 melanoma = system: UACC-257 melanoma

## O=c1ccn(C2OC(CN(O)CCC3C(O)C(CO)OC3n3ccc(=O)[nH]c3=O)C(O)C2O)c(=O)[nH]1 (stereo not drawn)
786-0 renal
  TGI: > 100 µM
A498 renal
  TGI: > 100 µM
A549 NSCLC
  TGI: > 100 µM
ACHN renal
  TGI: > 100 µM
BT-549 breast
  TGI: > 100 µM
CAKI-1 renal
  TGI: > 100 µM
COLO 205 colon
  TGI: > 100 µM
DU-145 prostate
  TGI: > 100 µM
EKVX NSCLC
  TGI: > 100 µM
HCC-2998 colon
  TGI: > 100 µM
HCT-116 colon
  TGI: > 100 µM
HCT-15 colon
  TGI: > 100 µM
HOP-62 NSCLC
  TGI: > 100 µM
HOP-92 NSCLC
  TGI: > 100 µM
HS 578T breast
  TGI: > 100 µM
HT29 colon
  TGI: > 100 µM
IGROV1 ovarian
  TGI: > 100 µM
K-562 leukemia
  TGI: > 100 µM
KM12 colon
  TGI: > 100 µM
LOX IMVI melanoma
  TGI: > 100 µM
M14 melanoma
  TGI: > 100 µM
MALME-3M melanoma
  TGI: > 100 µM
MCF7 breast
  TGI: > 100 µM
MDA-MB-231 breast
  TGI: > 100 µM
MDA-MB-435
  TGI: > 100 µM
MDA-N
  TGI: > 100 µM
NCI-H226 lung
  TGI: > 100 µM
NCI-H23 lung
  TGI: > 100 µM
NCI-H460 lung
  TGI: > 100 µM
NCI/ADR-RES ovarian
  TGI: > 100 µM
OVCAR-3 ovarian
  TGI: > 100 µM
OVCAR-4 ovarian
  TGI: > 100 µM
OVCAR-5 ovarian
  TGI: > 100 µM
OVCAR-8 ovarian
  TGI: > 100 µM
PC-3 prostate
  TGI: > 100 µM
RPMI-8226 leukemia
  TGI: > 100 µM
SF-268 CNS
  TGI: > 100 µM
SF-295 CNS
  TGI: > 100 µM
SK-MEL-2 melanoma
  TGI: > 100 µM
SK-OV-3 ovarian
  TGI: > 100 µM
SN12C renal
  TGI: > 100 µM
SNB-19 CNS
  TGI: > 100 µM
SNB-75 CNS
  TGI: > 100 µM
T-47D breast
  TGI: > 100 µM
TK-10 renal
  TGI: > 100 µM
U251 CNS
  TGI: > 100 µM
UO-31 renal
  TGI: > 100 µM

## CCOC(=O)C1=CC(C)(C(=O)OCC)Nc2c(nc(SC)[nH]c2=O)N1 (stereo not drawn)
786-0 renal
  TGI: > 10 µM
A498 renal
  TGI: > 10 µM
A549 NSCLC
  TGI: > 10 µM
ACHN renal
  TGI: > 10 µM
BT-549 breast
  TGI: > 10 µM
CAKI-1 renal
  TGI: > 10 µM
CCRF-CEM leukemia
  TGI: > 10 µM
COLO 205 colon
  TGI: > 10 µM
DU-145 prostate
  TGI: > 10 µM
EKVX NSCLC
  TGI: > 10 µM
HCC-2998 colon
  TGI: > 10 µM
HCT-116 colon
  TGI: > 10 µM
HCT-15 colon
  TGI: > 10 µM
HOP-62 NSCLC
  TGI: > 10 µM
HOP-92 NSCLC
  TGI: > 10 µM
HS 578T breast
  TGI: > 10 µM
HT29 colon
  TGI: > 10 µM
IGROV1 ovarian
  TGI: > 10 µM
K-562 leukemia
  TGI: > 10 µM
KM12 colon
  TGI: > 10 µM
LOX IMVI melanoma
  TGI: > 10 µM
M14 melanoma
  TGI: > 10 µM
MALME-3M melanoma
  TGI: > 10 µM
MCF7 breast
  TGI: > 10 µM
MDA-MB-231 breast
  TGI: > 10 µM
MDA-MB-435
  TGI: > 10 µM
MDA-N
  TGI: > 10 µM
MOLT-4 leukemia
  TGI: > 10 µM
NCI-H226 lung
  TGI: > 10 µM
NCI-H23 lung
  TGI: > 10 µM
NCI-H460 lung
  TGI: > 10 µM
NCI-H522 lung
  TGI: > 10 µM
NCI/ADR-RES ovarian
  TGI: > 10 µM
OVCAR-3 ovarian
  TGI: > 10 µM
OVCAR-4 ovarian
  TGI: > 10 µM
OVCAR-5 ovarian
  TGI: > 10 µM
OVCAR-8 ovarian
  TGI: > 10 µM
PC-3 prostate
  TGI: > 10 µM
RPMI-8226 leukemia
  TGI: > 10 µM
RXF 393 renal
  TGI: > 10 µM
SF-268 CNS
  TGI: > 10 µM
SF-295 CNS
  TGI: > 10 µM
SF-539 CNS
  TGI: > 10 µM
SK-MEL-2 melanoma
  TGI: > 10 µM
SK-MEL-28 melanoma
  TGI: > 10 µM
SK-MEL-5 melanoma
  TGI: > 10 µM
SK-OV-3 ovarian
  TGI: > 10 µM
SN12C renal
  TGI: > 10 µM
SNB-19 CNS
  TGI: > 10 µM
SNB-75 CNS
  TGI: > 10 µM
SW-620 colon
  TGI: > 10 µM
T-47D breast
  TGI: > 10 µM
TK-10 renal
  TGI: > 10 µM
U251 CNS
  TGI: > 10 µM
UACC-257 melanoma
  TGI: > 10 µM
UO-31 renal
  TGI: > 10 µM
